First: CC1CCc2c(Cl)ccc3c(=O)c(C(=O)O)cn1c23 (stereo not given)
Second: COc1cc(C(=O)O)ccc1Cc1cn(C)c2ccc(CC3CCN(C)C3=O)cc12 (stereo not given)
The melting point of the first is higher: 290 to 291 °C for the first, 232 to 233 °C for the second.

Compared with `O=C(Nc1ccccc1)OCC1(COC(=O)Nc2ccccc2)CS(=O)(=O)c2ccccc2C1=O`, `O=C(Nc1ccc(C(=O)N2Cc3cccnc3Nc3ccccc32)c(Cl)c1)c1ccccc1-c1ccccc1` is higher in melting point: 72 to 78 °C for the first, 147 to 165 °C for the second.

Compared with `CC(=O)Nc1c(-c2ccccc2C)nc2c3ccccc3ccn12`, `CC(C)c1nc(-c2ccccc2Cc2ccccc2)cc(-c2ccc(F)cc2)c1C=O` is lower in melting point: > 270 °C for the first, 205 to 207 °C for the second.

First: Cc1ccc(CCc2ccnc(N)c2N)cc1
Second: CC(O)CCCCc1ccc(-c2ccccc2)cc1 (stereo not given)
The melting point of the first is higher: 119 to 121 °C for the first, 71 to 72 °C for the second.

First: NC(=O)Nc1ccc2c(c1)C(=O)C1(CC1)O2
Second: CCSC1C(=O)N=C(NC(=O)Nc2cccc(Cl)c2)N1C (stereo not given)
The melting point of the first is higher: 250 to 252 °C for the first, 102 to 104 °C for the second.

Compared with `Nc1ccc(C2Oc3cc4c(cc3O2)CC2COC(=O)N2N=C4)cc1` (stereo not given), `CSc1ccc(Cl)c(C(=O)Nc2ccc(-n3nc(C4CC4)cc3C3CC3)cc2)c1` is lower in melting point: 173 to 175 °C for the first, 168 to 173 °C for the second.

First: CCCCCCCCCNC(=O)NCC(=O)O
Second: CCCCC(CC)C(=O)NCCCCCCCCCCCOCC(O)CNCCO (stereo not given)
The melting point of the first is higher: 144 to 145 °C for the first, 76.1 to 77.3 °C for the second.

Compared with `N#Cc1ccc(C(F)(F)F)cc1Sc1ccccc1`, `O=C(O)c1ccc(F)cc1Sc1ccc(F)cc1` is higher in melting point: 51 °C for the first, 209 to 218 °C for the second.

Compared with `CCCCOc1c(CNC(=O)OC(C)(C)C)n(CC(C)C)c(=O)c2ccc(-n3ccnn3)cc12`, `Cc1nn(-c2ccc(F)cc2)cc1C(=O)N(C)c1ccc(OCC(C)(C)C)c(C#N)c1` is lower in melting point: 190 to 191 °C for the first, 65 to 69 °C for the second.

Compared with `ClCc1cccc2c(-c3ccc(Br)cc3)nccc12`, `Brc1ccc(-c2ccc3nncn3n2)cc1` is higher in melting point: 116 to 118 °C for the first, 209 to 211 °C for the second.

First: COC(=O)c1cc2c(nc1C)C(CBr)CCCC2 (stereo not given)
Second: COC(=O)c1cc(N2C(=O)C3C4CC4CN3C2=O)c(F)cc1Cl (stereo not given)
The melting point of the first is higher: 66 to 67 °C for the first, 59 to 62 °C for the second.

First: COC(=O)NC(CCc1ccc(Br)cc1)C(=O)O (stereo not given)
Second: COC(=O)C(CC(F)(F)F)Nc1nc(-c2ccc(Br)cc2)cs1 (stereo not given)
The melting point of the first is higher: 136 to 137 °C for the first, 113 to 114 °C for the second.

First: O=[N+]([O-])c1ccc(-c2nnn(Cc3ccccc3)n2)cc1
Second: O=c1n(Cc2ccccc2)nc2n1C=Cc1ccccc1C2
The melting point of the first is higher: 139 to 141 °C for the first, 133 to 134 °C for the second.

First: CCCc1nc2c(N)nc(C)c(C)c2n1CCCS(C)(=O)=O
Second: CCC(CC)(CCCCS(N)(=O)=O)COc1nn2ncnc2cc1C
The melting point of the first is higher: 154 to 155 °C for the first, 132 to 133 °C for the second.

First: COc1ccc(C2=NN(c3cc(C)c4c(C)nn(C)c4n3)C(=O)[C@H]3CC=CC[C@@H]23)cc1Cl (relative stereo)
Second: COc1cccc(Cl)c1-c1cc2c(c3c1C(=O)NC3=O)c1cc(O)ccc1n2CCCN1C[C@@H](C)N[C@@H](C)C1
The melting point of the first is higher: 217 to 219 °C for the first, 199 to 202 °C for the second.

First: CCCc1nc2c(N)nc3cc(F)ccc3c2s1
Second: COc1cc(CNc2nc(C)nc(C)c2Cl)ccc1O
The melting point of the first is higher: 192 to 194 °C for the first, 179 to 182 °C for the second.

Compared with `Cc1cccc(C)c1C(=O)NCC(=O)N1c2ccccc2N(Cc2ccccc2)C(=O)[C@H]2CCC[C@H]21` (relative stereo), `O=C(O)c1cccc(CN2CCC(c3cn(Cc4ccco4)c4ccccc34)CC2)c1` is lower in melting point: 208 to 209 °C for the first, 154 to 155 °C for the second.

First: CC(C)Oc1ccnc2[nH]ccc12
Second: CSc1nccc(-c2cc(C)ccc2NC(=O)C(C)C)n1
The melting point of the first is higher: 182 to 184 °C for the first, 134 to 135 °C for the second.

Compared with `O=C(O)c1cccc(-c2ccc3c(c2)C(c2ccc(Cl)cc2Cl)CC3)c1` (stereo not given), `CCCCC(=O)c1c(-c2ccc3cc(O)ccc3c2)oc2ccc(Cl)cc12` is lower in melting point: 157 to 158 °C for the first, 156 to 157 °C for the second.

First: CCOC(=O)c1ccc(NC(C)=O)c(CN(CC)CC)c1
Second: CC(=O)Nc1ccc(C)cc1C(=O)c1ccc(F)cc1
The melting point of the first is lower: 57 to 59 °C for the first, 140 to 145 °C for the second.

First: Cn1ncnc1-c1oc2cccc(OCCc3ccc(F)cc3)c2c(=O)c1O
Second: CCOC(=O)c1ccc(OCC(O)COc2cccc3oc(C(=O)OCC)cc(=O)c23)cc1 (stereo not given)
The melting point of the first is higher: 215 to 217 °C for the first, 134 to 135 °C for the second.

First: CCCc1cc(=O)n(-c2cc(C(=O)OC(C)C)c(Cl)cc2F)c(=O)[nH]1
Second: COc1cc2c(cc1OCCCN1CCC(c3[nH]cc4cc(F)ccc34)CC1)CCCC2=O
The melting point of the first is higher: 192 to 193 °C for the first, 129 to 131 °C for the second.

First: Cc1ccc2c(c1F)N(C1CC1)C=NS2(=O)=O
Second: CCOC(=O)C1Nc2ccccc2S(=O)(=O)n2cccc21 (stereo not given)
The melting point of the first is higher: 189 to 192 °C for the first, 131 to 134 °C for the second.

First: CCCCCc1ccc(C(N)C(=O)O)[nH]1 (stereo not given)
Second: CCCCc1nc(SC)c(C(=O)O)n1Cc1ccc(-c2ccccc2C(=O)O)cc1
The melting point of the first is lower: 190 to 195 °C for the first, 220 °C for the second.

First: COC(=O)C(Oc1ccc(C(C)(C)C)cc1Cl)c1ccc(Oc2ccc(Cl)cc2)cc1 (stereo not given)
Second: CC(C)(C)c1cccc(S(=O)(=O)n2c(Cc3ccc(C(=O)O)cc3)cc3ccc(C(F)(F)F)cc32)c1
The melting point of the first is lower: 85.5 to 88 °C for the first, 199 °C for the second.

Compared with `O=C(O)CCCCCCCCCCCOc1ccccc1OCCCC(=O)O`, `CCOC(=O)C1=C(CO)NC(C)=C(C(=O)OCc2ccccc2)C1c1ccccc1[N+](=O)[O-]` (stereo not given) is lower in melting point: 105 °C for the first, 51 to 57 °C for the second.

Compared with `COc1ccnc(N2CCN(C(=S)c3ccccc3)CC2)n1`, `CS(=O)c1ccccc1-c1nc2ncccc2o1` (stereo not given) is higher in melting point: 125 to 129 °C for the first, 154 to 156 °C for the second.

First: Fc1ccccc1-c1ccc(Br)cc1F
Second: O=Cc1c(-c2ccc(Cl)cc2)sc2ccccc12
The melting point of the first is lower: 45 to 46 °C for the first, 99.7 to 101 °C for the second.

First: CCOc1nn(-c2c(Cl)cc(Cl)cc2Cl)c(N2C(=O)c3ccccc3C2=O)c1C(=O)c1ccccc1Cl
Second: O=C1OC(=Cc2ccc(Cl)c([N+](=O)[O-])c2)c2ccccc21
The melting point of the first is higher: 215 to 216 °C for the first, 198 to 204 °C for the second.

First: COC(=O)c1ccc(Cn2nc(C(N)=O)c3ccccc32)cc1
Second: COC(=O)c1ccccc1NC(=O)c1ccc(Br)c(C)c1
The melting point of the first is higher: 163 to 165 °C for the first, 123 °C for the second.

First: COCCC(=O)N[C@H]1CC[C@H](CCN2CCC(c3ccc(F)c4occc34)CC2)CC1
Second: COc1cc(C(=O)NN2CCN(C)CC2)ccc1Nc1ncc2c(n1)N(C1CCCC1)CC(F)(F)C(=O)N2C
The melting point of the first is higher: 177 °C for the first, 168 to 174 °C for the second.

First: Cc1nn(-c2ccc(Cl)nn2)c(C)c1N
Second: CN1Cc2c(-c3noc(CCl)n3)ncn2-c2cccc(Cl)c2C1=O
The melting point of the first is lower: 165 to 168 °C for the first, 208 to 210 °C for the second.

First: CC(C)c1nc2c(nc1C(C)C)C(=O)CCC2
Second: COC(=O)NS(=O)(=O)Nc1c(C(C)C)cccc1C(C)C
The melting point of the first is lower: 92 to 94 °C for the first, 152 to 155 °C for the second.

Compared with `CCOC(=O)C1=CC(C(=O)c2ccccc2O)=CN2CCc3c([nH]c4ccc(OC)cc34)C12C(=O)OCC` (stereo not given), `CCOc1cc2c(Nc3ccc(OC)cc3)c(C(=O)O)cnc2nc1C` is higher in melting point: 212 °C for the first, 259 to 263 °C for the second.

First: CC=CC=C[C@@H]1C[C@H](CC(=O)O)OC2(CCCCC2)O1 (relative stereo)
Second: CC1(C)[C@@H]2CC3[C@H](C(N)=O)[C@@]3(C)C[C@@H]21 (stereo not given in full)
The melting point of the first is higher: 144 to 146 °C for the first, 122 °C for the second.

First: CN1C(=O)CN(c2ccccc2)NC1=O
Second: O=C(O)c1ncn2c1[C@@H]1CCN1C(=O)c1ccccc1-2
The melting point of the first is lower: 207 to 213 °C for the first, 232 °C for the second.

First: CN1c2ccccc2C(=O)c2ccccc2C12OCCO2
Second: Fc1ccccc1NC1(c2nnn[nH]2)CCN(Cc2ccccc2)CC1
The melting point of the first is lower: 192 to 193 °C for the first, 195 to 198 °C for the second.

Compared with `O=C(O)C(OCOc1ccc(-c2ccc(Cl)cc2)cc1)(C(F)(F)F)C(F)(F)F`, `CSc1ccc(-c2cc(C(F)F)nn2-c2ccc(C(C)=O)cc2)cc1` is higher in melting point: 134 to 135 °C for the first, 143 to 145 °C for the second.

First: CC(=O)SCC(C)C(=O)N(C1Cc2ccccc2C1)[C@@H](C)C(=O)O (stereo not given in full)
Second: CC(=O)NC(C)=NC(=Nc1ccccc1)N1CCOCC1
The melting point of the first is lower: 140 to 142 °C for the first, 146 to 149 °C for the second.

Compared with `O=C1Cc2cc(Br)ccc2Oc2cc(O)cc(O)c21`, `CN1CC[C@@H](c2c(O)cc(O)c3c(=O)cc(-c4ccc(Br)cc4Cl)oc23)[C@@H]1CO` is higher in melting point: 112 to 117 °C for the first, 155 to 156 °C for the second.

Compared with `O=C1c2cc3ccc4c(c3c(-c3ccc5c(c3)OCO5)c2CN1CCCO)OCO4`, `CN(C)Cc1cc(-c2ccc3c(c2)CCO3)nn(CC2CC2)c1=O` is lower in melting point: 213 to 215 °C for the first, 109 to 110 °C for the second.

Compared with `COc1ccc(CNC(=O)c2c(NC(=O)c3ccc(C(=O)O)cc3)sc3c2CCCC3)cc1OC`, `Cc1cccc(NC(=O)NC2N=C(CC(C)C)c3cccc(C)c3N(CC(=O)N3CCCCCCC3)C2=O)c1` (stereo not given) is lower in melting point: > 270 °C for the first, 132 to 133 °C for the second.

First: CC(C)(CO)Cc1cc(C(C)(C)C)c(O)c(C(C)(C)C)c1
Second: CCNC(=O)c1c(C)cccc1C(C)(C)C
The melting point of the first is lower: 84 to 86 °C for the first, 110 to 112 °C for the second.

Compared with `CCC(=C(c1ccccc1)c1ccc(C=CCO)cc1)c1ccccc1`, `Cc1ccc2oc(-c3ccc(C=Cc4ccc(C(=O)O)cc4)cc3)cc2c1` is higher in melting point: 80 to 83 °C for the first, 355 to 358 °C for the second.

First: CC(C)(C)OC(=O)c1cc2ccccc2[nH]1
Second: COc1ccc2c(c1)c(-c1[nH]c3nccnc3c1C)cn2C
The melting point of the first is lower: 104 to 105 °C for the first, 243 to 244 °C for the second.

Compared with `CC(=O)N(CCOc1ccc(CC2SC(=O)NC2=O)cc1)c1ncccn1` (stereo not given), `O=Cc1cccn1-c1ccc(F)cc1` is lower in melting point: 137 °C for the first, 82 to 83 °C for the second.

First: NC(=O)NCc1ccc(CNC(=O)[C@@H](CCCNC(N)=N[N+](=O)[O-])NC(=O)Nc2cccc3ccccc23)cc1
Second: CCCCc1csc2ccc3[nH]c4c(c3c12)CN(Cc1ccccc1)CC4
The melting point of the first is higher: 210 °C for the first, 127 to 128 °C for the second.

Compared with `C=C(C)COc1c(C)c(CCC(O)CC(=O)CC(=O)OCC)c2c(c1C)CC(C)(C)O2` (stereo not given), `Cc1cc(SC(C)C)c(NC(=O)CCCCCSc2nc3c(C)c(Cl)cc(C(C)C)c3o2)c(SC(C)C)n1` is higher in melting point: 53.5 to 55 °C for the first, 99 to 101 °C for the second.

Compared with `Cc1cc(C)cc(Sc2c(CC#N)nc(C)n2C)c1`, `COc1cc2c(cc1C(F)(F)F)N(C(=O)Nc1cccc(-c3cncnc3)c1)CC2` is higher in melting point: 81 to 82 °C for the first, 226 to 228 °C for the second.

First: O=C(N1CCC1)N1CC(Oc2cccc(C(F)(F)F)c2)C1
Second: CCOc1ccc(Cl)c([N+](=O)[O-])c1
The melting point of the first is higher: 65 to 68 °C for the first, 48 to 49.5 °C for the second.
